Measured values as given in patent US20250084039A1, “4-SUBSTITUTED AMINOISOQUINOLINE DERIVATIVES” (Purdue Research Foundation, priority 2016, published 2025).
Where two headings read alike, the source gives them in different places.

How the values were obtained:
Assay type in all cases: cell-based
MV-4-11 = test: Proliferation inhibition at single concentration (CellTiter-Blue); conditions: 1 μM compound
MCF-7 = test: as above; conditions: 1 μM compound
Procedure: (§1) Plates were then treated with compound diluted in dimethyl sulfoxide (DMSO) as well as a DMSO control the following day for 72 hours. After this time the plates were then treated with 10 μL of CellTiter-Blue Cell Viability Assay (Promega, Madison, WI) for 4 hours. Then the plates were read on a plate reader (Bio-Tek, Winooski, VT). Data was analyzed on Excel as a percent of the DMSO vehicle.
(§2) Antiproliferative activities against AML cell line, MV4-11 (a FLT3-driven cell line) and three other solid tumors (MCF7, breast, HCT116, colon and HeLa) have been investigated (Tables 6A and 6B and FIG. 10).

HeLa = test: as above; conditions: 1 μM compound
Procedure: as §1, §2

HCT116 = test: as above; conditions: 1 μM compound
MV4-11 = test: Activity against AML cell line MV4-11 (CellTiter-Blue, 72 h)
Procedure: Cells were added to 96 well plates at 2000 cells per well for adherent lines and 4000 cells per well for suspension lines and kept in an incubator overnight. The following day the plates were treated with compounds to give rise to the final concentrations of; 100 μM, 10 μM, 5 μM 1 μM, 500 nM, 100 nM, 10 nM, […]. The plates were then stored in the incubator for 72 hours. On the third day the cells were assayed with 20 μL of CellTiter—Blue Cell Viability Assay per well and were incubated for 4 hours. After 4 hours' fluorescence intensity was taken on a plate reader: Excitation: 560/10 Emission: 590/10. IC50 analysis was performed on GraphPad Prism 7.

[1] = 72 h, read-out: IC50 against MV4-11/uM
[2] = Table 2, read-out: IC50 (nM) against MV4-11 (AML cell line)
[3] = FIG. 1, read-out: anticancer activities (IC50) against MV4-11

SMILES | Percent inhibition of proliferation MV-4-11 (MV-4-11) | Percent inhibition of proliferation MCF-7 (MCF-7) | Percent inhibition of proliferation HeLa (HeLa) | Percent inhibition of proliferation HCT116 (HCT116) | IC50 (MV4-11; [1]) | IC50 (MV4-11; [2]) | IC50 (MV4-11; [3])
Nc1ncc2ccc(Cl)cc2c1C#Cc1ccc(C(=O)NCCCN2CCCC2)cc1 [HSM1673] | 98% | 56% | 38% | 28% | 0.011 µM | 0.025 ± 0.0014 µM | 
CN1CCN(CCCNC(=O)c2ccc(C#Cc3c(N)ncc4ccc(Cl)cc34)cc2)CC1 [HSM1674] | 93% | 36% | 8% | 14% | 0.11 µM |  | 
Nc1ncc2ccc(Cl)cc2c1C#Cc1ccc(C(=O)NCCCN2CCCCC2)cc1 [HSM1683] | 95% | 57% | 49% | 10% | 0.003 µM | 0.0421 ± 0.0013 µM | 
CN(C)CCCNC(=O)c1cccc(C#Cc2c(N)ncc3ccc(Cl)cc23)c1 [HSM1688] | 74% | 33% | 64% | 43% | 0.25 µM |  | 0.25 µM
COCCCNC(=O)c1ccc(C#Cc2c(N)ncc3ccc(Cl)cc23)cc1 [HSM1692] | 81% | 22% | 0% | 29% | 0.45 µM |  | 0.45 µM
Nc1ncc2ccc(Cl)cc2c1C#Cc1ccccc1C(=O)NCCCN1CCCCC1 [HSM1717] | 82% | 76% | 2% | 33% | 0.05 µM |  | 
CN(CCCN1CCCCC1)C(=O)c1ccc(C#Cc2c(N)ncc3ccc(Cl)cc23)cc1 [HSN105] | 88% | 12% | 1% | 40% | 0.061 µM |  | 
Nc1ncc2ccc(Cl)cc2c1C#Cc1ccc(C(=O)N[C@H]2CC[C@H](N)CC2)cc1.O=C(O)C(F)(F)F [HSN129] | 99% | 37% | 22% | 29% | 0.008 µM |  | 
Nc1ncc2ccc(Cl)cc2c1C#Cc1ccc(C(=O)N2CCC(N3CCCCC3)CC2)cc1 [HSN135] | 100% | 35% | 0% | 21% | 0.033 µM |  | 
Nc1ccc(CCNC(=O)c2ccc(C#Cc3c(N)ncc4ccc(Cl)cc34)cc2)cc1 [HSN136] | 86% | 33% | 0% | 38% | 0.095 µM |  | 
Nc1ncc2ccc(Cl)cc2c1C#Cc1ccc(C(=O)NCCN2CCCCC2)cc1 [HSN137] | 99% | 74% | 20% | 60% | 0.006 µM |  | 
